Laboratory results taken from US20060223792A1, “Phenyl and pyridyl LTA4H modulators” (priority 2005, published 2006).

target: T1, recombinant human LTA4 hydrolase (rhLTA4H) (Homo sapiens, UniProt P09960); assay: Recombinant human LTA4 hydrolase assay for LTA4 hydrolase inhibitor activity; type: biochemical; conditions: recombinant human LTA4H, LTB4 quantified by enzyme-linked immunoassay; average of one to three determinations; read-out: IC50
T1 construct: made in house; host or cells: Spodoptera frugiperda (Sf-9) cells, baculovirus (pFastBac1)
T1 sequence (P09960 1-611): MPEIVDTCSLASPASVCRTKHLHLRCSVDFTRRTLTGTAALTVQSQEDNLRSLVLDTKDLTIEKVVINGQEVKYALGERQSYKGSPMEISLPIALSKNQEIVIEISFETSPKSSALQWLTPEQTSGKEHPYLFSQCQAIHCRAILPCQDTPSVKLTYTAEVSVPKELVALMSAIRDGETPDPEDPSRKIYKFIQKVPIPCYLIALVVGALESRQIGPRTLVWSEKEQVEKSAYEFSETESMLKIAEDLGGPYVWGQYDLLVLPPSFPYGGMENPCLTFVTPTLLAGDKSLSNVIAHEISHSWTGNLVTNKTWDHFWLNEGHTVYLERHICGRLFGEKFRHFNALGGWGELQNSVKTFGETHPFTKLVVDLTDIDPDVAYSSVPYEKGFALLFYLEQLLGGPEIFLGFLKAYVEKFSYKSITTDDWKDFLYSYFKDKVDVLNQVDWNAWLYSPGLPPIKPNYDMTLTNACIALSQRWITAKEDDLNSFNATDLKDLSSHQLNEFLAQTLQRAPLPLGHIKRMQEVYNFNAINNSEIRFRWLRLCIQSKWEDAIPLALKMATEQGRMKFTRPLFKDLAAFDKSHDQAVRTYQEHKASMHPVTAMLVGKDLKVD
Procedure: Recombinant Human LTA4 Hydrolase Assay for LTA4 Hydrolase Inhibitor Activity
Compounds of the present invention were tested for LTA4 hydrolase inhibitor activity against recombinant human LTA4 hydrolase (rhLTA4H). Vectors were prepared and used to express rhLTA4H essentially as follows: LTA4 hydrolase encoding DNA was amplified by polymerase chain reaction (PCR) using a human placental cDNA library as a template. Oligonucleotide primers for the PCR reaction were based on the 5′-end, and the complement of the 3′-end, of the published nucleotide sequence for the coding region of the human LTA4 hydrolase gene (C. D. Funk et al., Proc. Natl. Acad. Sci. USA 1987, 84:6677-6681). The amplified […] DNA fragment encoding LTA4 hydrolase was isolated and cloned into the pFastBac1 vector (Invitrogen). Recombinant baculovirus was generated as described by the manufacturer, and used to infect Spodoptera frugiperda (Sf-9) cells. Recombinant LTA4 hydrolase enzyme was purified from the infected Sf-9 cells essentially as described by J. K. Gierse et al. (Protein Expr. Purif. 1993, 4(5):358-366). The purified enzyme solution was adjusted to contain 0.29 mg/mL LTA4 hydrolase, 50 mM Tris (pH 8.0),150 mM NaCl, 5 mM dithiothreitol, 50% glycerol, and EDTA-free Complete protease inhibitor cocktail (Roche). The specific activity of the enzyme was about 3.8 μmol/min/mg.
LTA4 substrate was prepared from the methyl ester of LTA4 (Cayman Chemical) by treatment with 67 equiv. of NaOH under nitrogen at rt for 40 min. The LTA4 substrate in its free acid form was kept frozen at −80° C. until needed. Each compound was diluted to different concentrations in assay buffer (0.1 M potassium phosphate (pH 7.4), 5 mg/mL fatty acid free BSA) containing 10% DMSO. A 25-μL aliquot of each compound dilution was incubated for 10 min at rt with an equal volume of assay buffer containing 36 ng of recombinant human LTA4H. The solution was then adjusted to 200 μL with assay buffer. LTA4 (free acid) was thawed and diluted in assay buffer to a concentration of 357 ng/mL, and 25 μL (9 ng) of LTA4 substrate was added to the reaction mixture (total volume=225 μL) at time zero. Each reaction was carried out at rt for 10 min. The reaction was stopped by diluting 10 μL of the reaction mixture with 200 μL of assay buffer. LTB4 was quantifiedin the diluted sample by a commercially available enzyme-linked immunoassay (Cayman Chemical Co.), as recommended by the manufacturer. Positive controls, under essentially identical conditions but without addition of an inhibitor compound, and negative controls, containing all assay components except enzyme, were routinely run in each experiment. IC50 values were determined by fitting the activity data at different compound concentrations to a 4-parameter equation using the Grafit program (Erithacus software).
The IC50 values presented in the table below should be expected to fall within the typical three-fold variability of assays of this type. The values presented here are, in general, an average of one to three determinations.

**Q.** Which IC50 does the source give for `c1ccc(CCCOc2ccc(CN3CCCCC3)cc2)cc1` [Example 97, 1-[4-(3-Phenyl-propoxy)-benzyl]-piperidine] here?
**A.** The IC50 was 0.031 µM.

**Q.** How did the IC50 turn out when `CCN(CC)CCOc1ccc(OC(=O)Nc2ccccc2)cc1` [Example 46, Phenyl-carbamic acid 4-(2-diethylamino-ethoxy)-phenyl ester] was run?
**A.** The IC50 was 0.007 µM.

**Q.** `O=C(Nc1ccccc1)Oc1ccc(CCN2CCCCCC2)cc1` [Example 61, Phenyl-carbamic acid 4-(2-azepan-1-yl-ethyl)-phenyl ester] was tested. Which IC50 did it give?
**A.** The IC50 was 0.002 µM.

**Q.** How did the IC50 turn out when `NC(=O)NC1CCN(Cc2ccc(OCCCc3ccccc3)cc2)CC1` [Example 122, {1-[4-(3-Phenyl-propoxy)-benzyl]-piperidin-4-yl}-urea] was run?
**A.** The IC50 was 0.035 µM.

**Q.** With `O=C(COc1ccc(CCN2CCC(N3CCCCC3=O)CC2)cc1)c1ccccc1` [Example 26, 1′-{2-[4-(2-Oxo-2-phenyl-ethoxy)-phenyl]-ethyl}-[1,4′]bipiperidinyl-2-one] as the compound, how does the IC50 read?
**A.** Its IC50 is 0.343 µM.

**Q.** For `CCOC(=O)C1CCN(CCOc2ccc(OCCCc3ccccc3)cc2)CC1` [Example 116, 1-{2-[4-(3-Phenyl-propoxy)-phenoxy]-ethyl}-piperidine-4-carboxylic acid ethyl ester], which IC50 is on record?
**A.** Its IC50 is 0.195 µM.

**Q.** For `COC(=O)C1CCN(CCc2ccc(OCC(=O)c3ccccc3)cc2)CC1` [Example 75, 1-{2-[4-(2-Oxo-2-phenyl-ethoxy)-phenyl]-ethyl}-piperidine-4-carboxylic acid methyl ester], which IC50 is on record?
**A.** The IC50 was 0.042 µM.

**Q.** With `O=C(Oc1ccc(OCCN2CCCCC2)cc1)c1c[nH]c2ccccc12` [Example 68, 1H-Indole-3-carboxylic acid 4-(2-piperidin-1-yl-ethoxy)-phenyl ester] as the compound, how does the IC50 read?
**A.** The IC50 was 0.086 µM.

**Q.** Which IC50 does the source give for `CCOC(=O)C1CCCN(C2CCN(CCc3ccc(OCCc4ccccc4)cc3)CC2)C1` (centres unmarked) [Example 18, 1′-[2-(4-Phenethyloxy-phenyl)-ethyl]-[1,4]′bipiperidinyl-3-carboxylic acid ethyl ester] here?
**A.** The IC50 was 0.1 µM.

**Q.** Which IC50 does the source give for `NC1CCN(Cc2ccc(OCCCc3ccccc3)cc2)CC1` [Example 118, 1-[4-(3-Phenyl-propoxy)-benzyl]-piperidin-4-ylamine] here?
**A.** The IC50 was 0.04 µM.

**Q.** How did the IC50 turn out when `O=C(Nc1ccccc1)Oc1ccc(CCCN2CCC(O)(c3ccccc3)CC2)cc1` [Example 36, Phenyl-carbamic acid 4-[3-(4-hydroxy-4-phenyl-piperidin-1-yl)-propyl]-phenyl ester] was run?
**A.** The IC50 was 0.005 µM.

**Q.** `Fc1cccc(CCOc2ccc(OCCN3CCCCC3)cc2)c1` [Example 165, 1-(2-{4-[2-(3-Fluoro-phenyl)-ethoxy]-phenoxy}-ethyl)-piperidine] was tested. Which IC50 did it give?
**A.** Its IC50 is 0.9 µM.

**Q.** `c1ccc(CCCCOc2ccc(CN3CCCCC3)cc2)cc1` [Example 98, 1-[4-(4-Phenyl-butoxy)-benzyl]-piperidine] was tested. Which IC50 did it give?
**A.** Its IC50 is 0.167 µM.

**Q.** With `c1ccc(CCOc2ccc(CN3CCCCC3)cc2)cc1` [Example 95, 1-(4-Phenethyloxy-benzyl)-piperidine] as the compound, how does the IC50 read?
**A.** Its IC50 is 0.036 µM.

**Q.** Which IC50 does the source give for `NC(=O)C1CCCN(Cc2ccc(OCCc3ccccc3)cc2)C1` (centres unmarked) [Example 102, 1-(4-Phenethyloxy-benzyl)-piperidine-3-carboxylic acid amide] here?
**A.** Its IC50 is 0.036 µM.

**Q.** With `CCCCN(CCCC)CCc1ccc(OC(=O)Nc2ccccc2)cc1` [Example 63, Phenyl-carbamic acid 4-(2-dibutylamino-ethyl)-phenyl ester] as the compound, how does the IC50 read?
**A.** The IC50 was 0.0006 µM.

**Q.** Which IC50 does the source give for `O=C(Nc1ccccc1)Oc1ccc(CCCN2CCCCC2)cc1` [Example 37, Phenyl-carbamic acid 4-(3-piperidin-1-yl-propyl)-phenyl ester] here?
**A.** Its IC50 is 0.015 µM.

**Q.** `CCOC(=O)CCN(C)CCc1ccc(OCCc2ccccc2)cc1` [Example 85, 3-{Methyl-[2-(4-phenethyloxy-phenyl)-ethyl]-amino}-propionic acid ethyl ester] was tested. Which IC50 did it give?
**A.** The IC50 was 0.043 µM.

**Q.** `COC(=O)C1CCN(CCc2ccc(OCCc3ccccc3)cc2)CC1` [Example 77, 1-[2-(4-Phenethyloxy-phenyl)-ethyl]-piperidine-4-carboxylic acid methyl ester] was tested. Which IC50 did it give?
**A.** Its IC50 is 0.006 µM.

**Q.** With `O=C1CN(CCc2ccc(OCCc3ccccc3)cc2)CCN1` [Example 83, 4-[2-(4-Phenethyloxy-phenyl)-ethyl]-piperazin-2-one] as the compound, how does the IC50 read?
**A.** Its IC50 is 0.1 µM.

**Q.** `O=C(Nc1ccccc1)Oc1ccc(OCCN2CCC(O)(c3ccc(Cl)cc3)CC2)cc1` [Example 57, Phenyl-carbamic acid 4-{2-[4-(4-chloro-phenyl)-4-hydroxy-piperidin-1-yl]-ethoxy}-phenyl ester] was tested. Which IC50 did it give?
**A.** The IC50 was 0.0003 µM.

**Q.** `O=C(Nc1ccccc1)Oc1ccc(CCN2CCC(O)CC2)cc1` [Example 58, Phenyl-carbamic acid 4-[2-(4-hydroxy-piperidin-1-yl)-ethyl]-phenyl ester] was tested. Which IC50 did it give?
**A.** The IC50 was 0.002 µM.

**Q.** `NC(=O)C1CCN(Cc2ccc(OCCCc3ccccc3)cc2)CC1` [Example 110, 1-[4-(3-Phenyl-propoxy)-benzyl]-piperidine-4-carboxylic acid amide] was tested. Which IC50 did it give?
**A.** Its IC50 is 0.009 µM.

**Q.** `O=C(Nc1cccs1)Oc1ccc(OCCN2CCCCC2)cc1` [Example 65, Thiophen-2-yl-carbamic acid 4-(2-piperidin-1-yl-ethoxy)-phenyl ester] was tested. Which IC50 did it give?
**A.** Its IC50 is 0.007 µM.

**Q.** Which IC50 does the source give for `c1ccc(CCOc2ccc(CCN3CCC(c4c[nH]nn4)CC3)cc2)cc1` [Example 31, 1-[2-(4-Phenethyloxy-phenyl)-ethyl]-4-(1H-[1,2,3]triazol-4-yl)-piperidine] here?
**A.** Its IC50 is 0.033 µM.

**Q.** Which IC50 does the source give for `OC1CCN(Cc2ccc(OCCc3ccccc3)cc2)CC1` [Example 103, 1-(4-Phenethyloxy-benzyl)-piperidin-4-ol] here?
**A.** Its IC50 is 0.07 µM.

**Q.** How did the IC50 turn out when `CCCN(CCOc1ccc(OC(=O)Nc2ccccc2)cc1)CC1CC1` [Example 49, Phenyl-carbamic acid 4-[2-(cyclopropylmethyl-propyl-amino)-ethoxy]-phenyl ester] was run?
**A.** The IC50 was 0.004 µM.

**Q.** For `O=C(Oc1ccc(OCCN2CCCCC2)cc1)C1Cc2ccccc2C1` [Example 124, Indan-2-carboxylic acid 4-(2-piperidin-1-yl-ethoxy)-phenyl ester], which IC50 is on record?
**A.** The IC50 was 0.184 µM.

**Q.** `CN(C)C(=O)Oc1ccc(OCCN2CCC(O)(c3ccccc3)CC2)cc1` [Example 10, Dimethyl-carbamic acid 4-[2-(4-hydroxy-4-phenyl-piperidin-1-yl)-ethoxy]-phenyl ester] was tested. Which IC50 did it give?
**A.** The IC50 was 0.052 µM.

**Q.** With `O=C(Nc1ccccc1)Oc1ccc(CCN2CCCC2)cc1` [Example 60, Phenyl-carbamic acid 4-(2-pyrrolidin-1-yl-ethyl)-phenyl ester] as the compound, how does the IC50 read?
**A.** Its IC50 is 0.004 µM.

**Q.** `CN(CCC(=O)O)CCc1ccc(OCCc2ccccc2)cc1` [Example 88, 3-{Methyl-[2-(4-phenethyloxy-phenyl)-ethyl]-amino}-propionic acid] was tested. Which IC50 did it give?
**A.** The IC50 was 0.004 µM.

**Q.** `OC1c2ccccc2CC1Oc1ccc(OCCN2CCCCC2)cc1` (centres unmarked) [Example 125, 2-[4-(2-Piperidin-1-yl-ethoxy)-phenoxy]-indan-1-ol] was tested. Which IC50 did it give?
**A.** Its IC50 is 0.192 µM.

**Q.** How did the IC50 turn out when `CCN(CCc1ccc(OCC(=O)c2ccccc2)cc1)C1CCCCC1` [Example 72, 2-{4-[2-(Cyclohexyl-ethyl-amino)-ethyl]-phenoxy}-1-phenyl-ethanone] was run?
**A.** The IC50 was 0.01 µM.

**Q.** How did the IC50 turn out when `CC(C(=O)Oc1ccc(OCCN2CCCCC2)cc1)c1ccccc1` (centres unmarked) [Example 22, 2-Phenyl-propionic acid 4-(2-piperidin-1-yl-ethoxy)-phenyl ester] was run?
**A.** Its IC50 is 0.021 µM.

**Q.** `O=C(Nc1ccccc1F)Oc1ccc(OCCN2CCCCC2)cc1` [Example 43, (2-Fluoro-phenyl)-carbamic acid 4-(2-piperidin-1-yl-ethoxy)-phenyl ester] was tested. Which IC50 did it give?
**A.** The IC50 was 0.007 µM.
